Results on 3 compounds are retold here after US7064120B2, “Tricyclic pyridyl carboxamides and derivatives thereof tocolytic oxytocin receptor antagonists” (Wyeth, priority 2001, dated 2006).

For one data set, the target named is T1, human oxytocin receptor (Homo sapiens, UniProt P30559).
T1 construct: host or cells: CHO cells, stably transfected (pcDNA3.1 vector)
T1 sequence (P30559 1-389): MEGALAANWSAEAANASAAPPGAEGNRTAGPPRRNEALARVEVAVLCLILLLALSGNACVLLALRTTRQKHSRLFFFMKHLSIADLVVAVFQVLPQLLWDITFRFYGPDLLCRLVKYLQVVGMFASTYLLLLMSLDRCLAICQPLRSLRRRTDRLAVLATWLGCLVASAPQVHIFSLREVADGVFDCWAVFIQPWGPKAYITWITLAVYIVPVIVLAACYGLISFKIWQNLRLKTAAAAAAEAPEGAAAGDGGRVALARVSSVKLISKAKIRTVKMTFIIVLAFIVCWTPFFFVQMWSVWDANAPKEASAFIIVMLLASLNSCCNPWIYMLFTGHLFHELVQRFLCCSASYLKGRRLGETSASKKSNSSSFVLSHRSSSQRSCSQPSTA
Briefly: Oxytocin binding in CHO cell membranes expressing human oxytocin receptors ([3H]oxytocin radioligand binding). To be noted: value in parentheses, read-out: OT (IC50). The gist of the method: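 CHO membranes expressing human oxytocin receptor (25–50 μg protein/well) incubated 60 min at room temperature with [3H]oxytocin in Tris-HCl pH 7.4 buffer with MgCl2, BSA and protease inhibitors. Filtration and scintillation counting; reported as % inhibition at a stated concentration or nM IC50.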

A word on the IC50: it is the point on the concentration scale where inhibition reaches its midpoint. One may read the melting point as the temperature of the solid-liquid transition. In turn, `COc1cc(-c2ccccc2Cl)c(Cl)cc1C(=O)N1Cc2ccc(C(=O)N(C)Cc3cccnc3)n2Cc2ccccc21` [Example 6, 10-[(2′,6-Dichloro-3-methoxy-[1,1′-biphenyl]-4-yl)carbonyl]-N-methyl-N-(pyridin-3-ylmethyl)-10,11-dihydro-5H-pyrrolo[2,1-c][1,4]benzodiazepine-3-carboxamide] displayed a melting point of 196 to 198 °C. The half-maximal inhibitory concentration (IC50) at human oxytocin receptor was 7.51 nM.
In turn, `COc1cc(-c2ccccc2C(F)(F)F)c(Cl)cc1C(=O)N1Cc2ccc(C(=O)N(C)Cc3cccnc3)n2Cc2ccccc21` [Example 5, 10-{[6-Chloro-3-methoxy-2′-trifluoromethyl-[1,1′-biphenyl]-4-yl]carbonyl}-N-methyl-N-(pyridin-3-ylmethyl)-10,11-dihydro-5H-pyrrolo[2,1-c][1,4]benzodiazepine-3-carboxamide] yielded a melting point of 124 to 126 °C. Moreover, the 50% inhibitory concentration (IC50) on human oxytocin receptor came to 10.2 nM.
Regarding `COc1cc(C(=O)N2Cc3ccc(C(=O)N(C)Cc4ccc[n+]([O-])c4)n3Cc3ccccc32)ccc1-c1ccccc1C(F)(F)F` [Example 8, 10-{[2-Methoxy-2′-trifluoromethyl-[1,1′-biphenyl]-4-yl]carbonyl}-N-methyl-N-(1-oxo-pyridin-3-ylmethyl)-10,11-dihydro-5H-pyrrolo[2,1-c][1,4]benzodiazepine-3-carboxamide], the melting point was 165 to 170 °C (dec.). On human oxytocin receptor, the half-maximal inhibitory concentration (IC50) turned out to be 4.65 nM.
